Read-outs that look alike come from different tables or passages of the source.
Legend:
in vitro [1] = conditions: dog, cultured hepatocytes
in vitro [2] = conditions: human, cultured hepatocytes
in vitro [3] = conditions: mouse, hepatocytes
[4] = Hepatocyte elimination of parent compound, spread across species; type: in vitro ADME; conditions: mouse, rat, dog, monkey, human, hepatocytes; lowest to highest species value; read-out: range of hepatocyte elimination half-life values across species
Procedure: Hepatocyte Elimination: (+)-NTX, AK-17 and XT-203 were incubated with cultured hepatocytes from the species listed in FIG. 9 and Table 4, and samples of the culture supernatant were collected over time. Samples were concentrated by nitrogen drying followed by reconstitution with 40% methanol for LC/MS analysis The data points were analyzed using the WinNonLin pharmacokinetics software package, and a half-life was determined that describes the rate of parent elimination. […].
(§1) In addition to the animal studies presented above in Examples 1-9, the results of in vitro testing of several of the compounds (i.e., XT-203, XT-204, and XT-206 through XT-217) are shown in Table 5 and Table 6. […]. Nine additional compounds had two or fewer off-target hits in the screening. […] These compounds spanned all of the tested N-modification classes. […]. Thus, the medicinal chemistry approach taken in this series of fluorinated compounds can yield low off-target activity and longer metabolic lifetime while preserving TLR4 antagonism. It is appreciated that further development of compounds in this class, using techniques known to those skilled in the art, may yield additional compounds with desirable pharmacologic and toxicologic characteristics.

in vitro [5] = conditions: monkey, cultured hepatocytes
[6] = tested on: TLR4 (LPS-stimulated NO production, BV-2 mouse microglia cell line); test: NO assay: inhibition of LPS-induced NO production in BV-2 microglia (iNOS cellular); type: cell-based; conditions: Mus musculus
Source text: NO assay: Microglia are the resident cells of the innate immune system in the central nervous system, and TLR4 is primarily expressed by microglia rather than astrocytes or neurons in the CNS. Given this expression profile, the BV-2 mouse microglia cell line was used as the model system of microglia, as these cells recapitulate many of the responses of primary microglia with high fidelity. TLR4 activation induces the downstream production of the inflammatory factor NO, which contributes to the development of neuropathic pain and drug addiction. BV-2 murine microglia were grown in supplemented DMEM (including 10% FBS, 50 unit mL^−1 penicillin, 50 μg·mL^−1 streptomycin). BV-2 cells were detached from the flask by trypsin digestion when ˜80% confluence was reached. Cells were seeded at a density of 4×10^4 cells per well in 96-well plates. After overnight incubation, media was aspirated and changed to DMEM media without FBS. Cells were then treated with LPS (200 ng/ml) and different concentrations of the testing compounds. After 24 h treatment, 100 μL of supernatant media was removed after cells were treated for 24 h and added to flat black 96-well microfluor plates (Thermo Scientific, MA, USA). Subsequently, 10 μL of 2, 3-diaminonaphthalene (0.05 mg·mL^−1 in 0.62 M HCl) was added to each well and incubated for 15 min. The reaction was quenched by addition of 5 μL of 3 M NaOH and the plate was read on a Beckman Coulter DTX880 reader (Fullerton, Calif., USA) with excitation at 360 nm and emission at 430 nm.
N chain NTX: This experimentation involved an in vitro assay where mouse BV2 cells were treated with LPS, which results in the release of nitric oxide (NO). Blockade of TLR4 activity results in reduced NO production. Therefore, IC50 values were determined for test compounds that antagonize TLR4 activity. A series of test compounds were prepared, with different N-alkyl chains replacing the cyclopropyl methyl found in naltrexone. Cell viability was also measured by a standard assay, e.g., measurement of the release of cytoplasm-resident enzymes in the tissue culture supernatant or media to detect cell loss/lysis/rupture. A dose-inhibition curve was generated by testing the TLR4 antagonist compound for the ability to block LPS-stimulated iNOs induction. In FIG. 7, the inhibition levels across a range of doses are graphed, along with a regression curve. The IC50 value—50% inhibition level—is also provided, graphed against the length of the alkyl chain. Note that with longer N-alkyl chain the IC50 was reduced, although cell viability became problematic.
FIGS. 8B to 8D show the results of the inhibition of NO production from LPS-stimulated BV2 cells using the assay described above.

Cannabinoid CB1 = Cannabinoid CB1 (Homo sapiens, UniProt P21554); test: Off-target screening; type: binding
Source text: as §1

Adenosine A2A = Adenosine A2A (Homo sapiens, UniProt P29274); test: Off-target screening; type: binding
Source text: as §1

[7] = tested on: off-target screening panel; test: Off-target inhibition screening (whole panel); conditions: 10 μM test concentration; hit = inhibition at or above the 50% level
Source text: as §1

in vitro [8] = conditions: rat, cultured hepatocytes
hERG = hERG (Homo sapiens, UniProt Q12809); test: hERG inhibition
iNOS = iNOS (Homo sapiens, UniProt P35228); test: iNOS enzyme inhibition; type: biochemical
Human hepatocytes = test: Hepatocyte elimination of parent compound; conditions: cultured hepatocytes
[9] = tested on: surgical pain (paw incision), paw withdrawal threshold; test: Mouse paw incision model, morphine potentiation
Procedure: Manual testing with von Frey hairs was performed at the times indicated in the graphs. The animals were placed in individual Perspex boxes on a raised metal mesh for at least 40 min before the test. A series of graduated von Frey hairs (0.07, 0.16, 0.4, 0.6, and 1.0 g) were applied to the plantar surface of the left paw, in sequence. Each von Frey hair was applied 10 times on a one-sec-on-one-sec-off protocol, with each hair slightly bent. A paw withdrawal upon this hind-paw stimulation for a given von Frey hair registering 5 responses out of 10 trials was recorded the paw withdrawal threshold (PWT). A baseline PWT was determined each day for 3 days before surgery. […] In addition, the PWT was determined before dosing and 1, 2, and 4 hours after dosing.
In both cases, morphine was dosed at 1 mg/kg IP.

[10] = tested on: bone fracture pain, paw withdrawal threshold; test: Mouse bone fracture model, intraperitoneal; type: in vivo
Source text: Each group had n=10 mice.

[11] = tested on: CCI neuropathic pain (mechanical allodynia); test: Rat CCI model, oral and subcutaneous phases (Study R042); type: in vivo; conditions: gabapentin 200 mg/kg
Procedure: Rat chronic constriction injury model-Oral and subcutaneous (+)-NTX and XT-203: An efficacy study was conducted in the rat chronic constriction injury (CCI) model (Study R042). The study design comprised two phases. A five-day period of oral (PO) dosing and behavioral testing was followed by a five-day period of subcutaneous (SC) dosing, with a two-day washout period between these periods. Dosing on each day was performed three times a day (TID). Behavioral testing for mechanical allodynia was performed on the first and fifth days of dosing, at three times on those days: before the first dose of the day, 30 minutes after the first dose of the day, and 30 minutes after the second dose of the day. Thus, day 5 testing is designated as pre5.1 (before the first dose of the day), 5.1 (fifth day, after first dose) or 5.2 (fifth day, after second dose). On day 5 of the subcutaneous dosing phase, a second testing period was introduced 60 minutes after the second dose. (+)-NTX (6, 18, and 60 mg/kg) and XT-203. Mechanical allodynia was tested manually, using the Chaplan up-down testing method. The results are shown in FIGS. 10A and 10B, with the oral (PO) phase presented as the first pair of graphs. After the two-day washout, the subcutaneous (SC) phase was carried out with the results shown in the graphs at FIGS. 10C and 10D.
The CCI model was well established in this study, with allodynic response thresholds between 2 and 3 grams (presurgical baseline thresholds at 15 g, not shown). […] This is especially remarkable given the extremely rapid metabolism and pharmacokinetics of (+)-NTX (see FIG. 9). Here, the dampening of efficacy due to lack of significant amounts of parent compound is particularly evident. Thus, the appropriate dose-ranging conditions in animal models should reflect (+)-NTX serum levels during efficacy testing, to match pharmacokinetics with pharmacodynamics. […] Efficacy is only observed after the first dose on day 5. Thus, changes designed to improve compound stability do provide improved efficacy.

Adrenergic α2A = target: T1, Adrenergic α2A (Homo sapiens, UniProt P08913); test: Off-target screening; type: binding; conditions: 10 μM
T1 sequence (P08913 1-465): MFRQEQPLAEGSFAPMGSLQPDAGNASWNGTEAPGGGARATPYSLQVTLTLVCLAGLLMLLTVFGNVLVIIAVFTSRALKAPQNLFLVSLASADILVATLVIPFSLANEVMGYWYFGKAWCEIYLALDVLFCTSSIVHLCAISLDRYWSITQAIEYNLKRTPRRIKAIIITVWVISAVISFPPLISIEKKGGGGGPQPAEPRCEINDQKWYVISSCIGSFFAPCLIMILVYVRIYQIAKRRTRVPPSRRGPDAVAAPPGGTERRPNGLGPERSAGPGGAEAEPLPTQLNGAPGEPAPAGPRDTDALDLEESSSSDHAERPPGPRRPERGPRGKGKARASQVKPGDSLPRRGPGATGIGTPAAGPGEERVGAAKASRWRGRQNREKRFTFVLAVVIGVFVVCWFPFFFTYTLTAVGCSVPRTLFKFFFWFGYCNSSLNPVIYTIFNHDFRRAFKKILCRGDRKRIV
Source text: as §1

[12] = Microglia, Table 6, unit inferred, footnote: Indicator of TL4 antagonism
[13] = LPS (200 ng/ml), 24 h, BV-2 cells, Table 3
[14] = read-out: iNOS enzyme, Table 6, unit inferred

Chain of hERG (Q12809 whole entry): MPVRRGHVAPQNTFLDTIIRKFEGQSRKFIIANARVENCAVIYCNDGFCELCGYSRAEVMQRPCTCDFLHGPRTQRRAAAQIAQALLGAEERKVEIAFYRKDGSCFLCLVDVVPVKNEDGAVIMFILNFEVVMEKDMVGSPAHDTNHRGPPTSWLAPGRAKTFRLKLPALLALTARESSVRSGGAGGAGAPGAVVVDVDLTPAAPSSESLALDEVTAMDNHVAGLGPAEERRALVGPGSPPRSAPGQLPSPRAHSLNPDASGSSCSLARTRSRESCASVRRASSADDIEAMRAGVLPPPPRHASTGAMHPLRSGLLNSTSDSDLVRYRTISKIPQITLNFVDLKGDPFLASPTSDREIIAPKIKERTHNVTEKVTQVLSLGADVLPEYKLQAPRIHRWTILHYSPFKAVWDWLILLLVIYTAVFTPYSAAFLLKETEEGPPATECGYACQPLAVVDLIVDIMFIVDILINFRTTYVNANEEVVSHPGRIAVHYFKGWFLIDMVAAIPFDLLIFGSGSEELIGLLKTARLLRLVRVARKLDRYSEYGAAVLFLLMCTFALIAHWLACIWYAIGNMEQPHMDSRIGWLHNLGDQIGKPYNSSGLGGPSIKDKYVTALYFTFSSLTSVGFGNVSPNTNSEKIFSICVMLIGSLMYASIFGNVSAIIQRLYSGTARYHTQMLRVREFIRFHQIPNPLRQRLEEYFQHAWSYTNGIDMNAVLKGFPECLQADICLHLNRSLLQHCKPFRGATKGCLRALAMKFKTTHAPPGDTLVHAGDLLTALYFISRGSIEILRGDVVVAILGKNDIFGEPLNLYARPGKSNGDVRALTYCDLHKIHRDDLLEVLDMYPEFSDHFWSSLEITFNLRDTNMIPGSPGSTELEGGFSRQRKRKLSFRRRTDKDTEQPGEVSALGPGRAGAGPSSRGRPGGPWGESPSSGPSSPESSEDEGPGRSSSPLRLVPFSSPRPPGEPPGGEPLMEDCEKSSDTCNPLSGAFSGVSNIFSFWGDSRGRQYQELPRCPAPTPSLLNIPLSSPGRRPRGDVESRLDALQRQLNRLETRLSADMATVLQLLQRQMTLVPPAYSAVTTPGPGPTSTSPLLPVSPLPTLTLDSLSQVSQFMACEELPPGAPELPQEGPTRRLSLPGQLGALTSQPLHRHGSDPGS
Chain of iNOS (P35228 whole entry): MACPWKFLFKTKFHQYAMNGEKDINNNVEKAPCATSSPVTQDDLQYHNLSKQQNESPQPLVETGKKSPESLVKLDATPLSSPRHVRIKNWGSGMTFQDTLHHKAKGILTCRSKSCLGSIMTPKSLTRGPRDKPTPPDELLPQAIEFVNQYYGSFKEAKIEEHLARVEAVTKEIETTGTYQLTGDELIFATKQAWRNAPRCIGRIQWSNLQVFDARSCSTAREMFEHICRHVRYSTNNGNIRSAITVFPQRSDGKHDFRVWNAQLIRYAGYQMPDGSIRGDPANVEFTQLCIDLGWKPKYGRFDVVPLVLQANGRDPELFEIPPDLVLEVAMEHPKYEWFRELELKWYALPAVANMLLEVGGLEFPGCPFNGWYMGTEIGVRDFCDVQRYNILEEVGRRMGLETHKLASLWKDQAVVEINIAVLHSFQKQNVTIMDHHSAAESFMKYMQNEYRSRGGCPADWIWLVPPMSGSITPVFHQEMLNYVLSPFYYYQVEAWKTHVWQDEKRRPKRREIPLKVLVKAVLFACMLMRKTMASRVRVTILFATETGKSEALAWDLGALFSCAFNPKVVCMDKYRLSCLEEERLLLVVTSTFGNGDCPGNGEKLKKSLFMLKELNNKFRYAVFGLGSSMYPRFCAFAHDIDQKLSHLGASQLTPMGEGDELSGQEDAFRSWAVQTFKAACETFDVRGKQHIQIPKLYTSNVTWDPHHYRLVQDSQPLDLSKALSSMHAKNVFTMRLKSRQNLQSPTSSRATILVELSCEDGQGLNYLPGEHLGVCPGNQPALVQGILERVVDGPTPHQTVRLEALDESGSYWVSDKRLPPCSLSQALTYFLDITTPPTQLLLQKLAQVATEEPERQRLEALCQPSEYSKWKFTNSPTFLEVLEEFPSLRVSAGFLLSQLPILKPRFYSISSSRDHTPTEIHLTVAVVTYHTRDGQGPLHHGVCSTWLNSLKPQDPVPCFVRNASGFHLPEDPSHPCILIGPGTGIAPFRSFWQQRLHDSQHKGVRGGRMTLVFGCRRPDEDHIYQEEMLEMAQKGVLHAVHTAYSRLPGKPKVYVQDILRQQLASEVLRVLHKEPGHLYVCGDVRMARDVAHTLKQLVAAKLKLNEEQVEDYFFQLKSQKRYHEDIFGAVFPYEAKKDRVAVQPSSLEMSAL
Chain of Adenosine A2A (P29274 whole entry): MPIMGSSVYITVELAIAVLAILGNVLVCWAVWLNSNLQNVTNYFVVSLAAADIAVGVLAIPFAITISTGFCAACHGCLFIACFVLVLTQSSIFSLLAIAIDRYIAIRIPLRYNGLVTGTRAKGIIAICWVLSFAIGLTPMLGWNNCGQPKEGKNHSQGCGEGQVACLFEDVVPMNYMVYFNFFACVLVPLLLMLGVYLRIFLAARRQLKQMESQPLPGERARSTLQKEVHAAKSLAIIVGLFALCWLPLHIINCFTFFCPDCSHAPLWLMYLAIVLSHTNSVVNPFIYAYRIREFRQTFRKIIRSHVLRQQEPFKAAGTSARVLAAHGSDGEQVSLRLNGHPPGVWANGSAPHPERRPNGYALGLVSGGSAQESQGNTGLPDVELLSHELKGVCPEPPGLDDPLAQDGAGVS
Chain of Cannabinoid CB1 (P21554 whole entry): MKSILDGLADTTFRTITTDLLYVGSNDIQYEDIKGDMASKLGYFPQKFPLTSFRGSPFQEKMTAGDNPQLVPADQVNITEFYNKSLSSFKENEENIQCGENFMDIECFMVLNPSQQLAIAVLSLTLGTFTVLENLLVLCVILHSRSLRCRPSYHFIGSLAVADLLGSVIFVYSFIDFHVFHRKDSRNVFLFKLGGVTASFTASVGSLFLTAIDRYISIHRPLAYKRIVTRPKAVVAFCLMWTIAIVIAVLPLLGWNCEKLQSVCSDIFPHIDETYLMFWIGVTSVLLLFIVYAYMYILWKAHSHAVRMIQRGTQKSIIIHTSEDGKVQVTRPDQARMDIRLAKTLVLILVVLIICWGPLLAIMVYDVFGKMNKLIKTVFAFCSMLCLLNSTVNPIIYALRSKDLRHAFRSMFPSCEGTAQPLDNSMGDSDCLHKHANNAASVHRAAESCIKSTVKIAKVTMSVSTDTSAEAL

Compound	half-life (in vitro [1])	half-life (in vitro [2])	half-life (in vitro [3])	half-life [4]	half-life (in vitro [5])	IC50 [6, 12]	IC50 [6, 13]	off-target hits in the screening [7]	half-life (in vitro [8])	IC50 (hERG)	IC50 (iNOS)	IC50 (iNOS; [14])	other results
COc1ccc2c3c1O[C@@H]1C(F)CCC4[C@H](C2)N(S(=O)(=O)Cc2ccccc2)CC[C@]341 (some centres unmarked) [XT-217]	9.7 min	14.1 min	12.6 min	9.2 to 14.1 min	9.2 min	> 10 µM	> 10 µM	two off-target hits	10.2 min	> 10 µM	–	–	inhibition at 10 µM (Cannabinoid CB1): 56%; inhibition at 10 µM (Adenosine A2A): 61%
COc1ccc2c3c1O[C@@H]1C(F)CCC4[C@H](C2)N(S(=O)(=O)c2ccccc2)CC[C@]341 (some centres unmarked) [XT-208]	14.6 min	19.7 min	10.9 min	8.7 to 19.7 min	8.7 min	> 10 µM	> 10 µM	two off-target hits	12.7 min	> 10 µM	> 10 µM	> 10 µM	inhibition at 10 µM (Cannabinoid CB1): 54%; inhibition at 10 µM (Adenosine A2A): 64%
COc1ccc2c3c1O[C@@H]1C(F)CCC4[C@H](C2)N(S(=O)(=O)C2CC2)CC[C@]341 (some centres unmarked) [XT-212]	86.4 min	61.2 min	19.8 min	–	21.2 min	> 10 µM	> 10 µM	no off-target hits and none	14.4 min	> 10 µM	–	–	parent duration in human hepatocytes relative to XT-203 (Human hepatocytes): longer parent duration than XT-203
COc1ccc2c3c1O[C@@H]1C(F)CCC4[C@H](C2)N(C(=O)Cc2ccccc2)CC[C@]341 (some centres unmarked) [XT-211]	19.1 min	32.5 min	19 min	–	12.9 min	> 10 µM	> 10 µM	no off-target hits and none	11.9 min	> 10 µM	–	–	–
COc1ccc2c3c1O[C@@H]1C(F)CCC4[C@H](C2)N(C(=O)c2ccccc2)CC[C@]341 (some centres unmarked) [XT-207]	39.8 min	37.4 min	22.4 min	–	12.4 min	> 10 µM	> 10 µM	no off-target hits and none	11.6 min	> 10 µM	> 10 µM	> 10 µM	–
CN1CC[C@]23c4c5ccc(O)c4O[C@H]2[C@@H](O)C=C[C@H]3[C@H]1C5 [Morphine, morphine]	–	–	–	–	–	–	–	–	–	–	–	–	PWT, 2 hours after dosing ([9]; morphine 1 mg/kg IP alone): 0.11 ± 0.033 g; PWT, 4 hours after dosing ([9]; morphine 1 mg/kg IP alone): 0.10 ± 0.014 g; PWT, 1 hour after dosing ([9]; morphine 1 mg/kg IP alone, baseline 0.11±0.015 g): 0.20 ± 0.046 g; adverse effects during observation ([9]; morphine dose groups): No significant adverse effects; effect on PWT in mouse fracture pain model ([10]; IP, morphine 1, 2, 3, 5 mg/kg, XT-203 6, 10, 18, 30 mg/kg, (+)-NTX 6, 18, 30, 60 mg/kg, dose-dependent): increased the PWT; behaviour observed at 5 mg/kg ([10]; mouse fracture model, 5 mg/kg IP, 1 hour after dosing, gone from two hours onward): some mice showing walking anti-clockwise
COc1ccc2c3c1O[C@@H]1C(F)CCC4[C@H](C2)N(C(=O)C2CC2)CC[C@]341 (some centres unmarked) [XT-206]	80.8 min	120 min	18.3 min	14.4 to 120 min	15.5 min	> 10 µM	> 10 µM	no off-target hits and none	14.4 min	> 10 µM	> 10 µM	> 10 µM	parent duration in human hepatocytes relative to XT-203 (Human hepatocytes): longer parent duration than XT-203
NCC1(CC(=O)O)CCCCC1 [gabapentin, reference compound]	–	–	–	–	–	–	–	–	–	–	–	–	reversal of mechanical allodynia, positive control [11]: reversals of allodynia
COc1ccc2c3c1O[C@@H]1C(F)CCC4[C@H](C2)N(C2CC2)CC[C@]341 (some centres unmarked) [XT-214]	37.7 min	52.9 min	18.7 min	–	14.1 min	> 10 µM	> 10 µM	one off-target hit	11.8 min	> 10 µM	–	–	inhibition at 10 µM (Adrenergic α2A): 51%

Reference: patent US11505556B2, “Halogenated derivatives of morphinans and uses thereof” (Xalud Therapeutics, Inc., priority 2017, dated 2022)
